The test system of one data set is male dd mice. Nature of the data set: Acute Toxicity Test (oral, mice). Format: in vivo. The conditions noted are these: oral 300 mg/kg, mortality observed seven days after administration. As to the method:
Test compounds (300 mg/kg) were orally administered to male dd mice weighing 20±1 g (each group consists of three animals). Minimum lethal dose (MLD) was determined by observing mortality seven days after the administration.

For a further data set, the system named is steroid 5α-reductase. Nature of the data set: Inhibition effects on steroid 5α-reductase activity (rat prostate enzyme, [4-14C]-testosterone). Format: biochemical, male rats. The conditions noted are these: pH 6.5, 37° C., 20 minutes. As to the method:
The measurements of inhibition effects of test compounds on steroid 5α-reductase activity were performed according to the method described by Liang et al. [J. Biol. Chem., 259, 734 (1984)] as follows.
The prostates from male rats were homogenated in three tissue volumes of 20 mM sodium phosphate buffer (pH 6.5; containing 0.32M sucrose and 1 mM dithiothreitol). The homogenate was centrifuged at 140,000 X g for one hour. The precipitate was suspended in the buffer described above and the suspension was centrifuged at 140,000 X g for one hour. The precipitate was resuspended in the buffer described above and the solution (30-50 mg protein/ml) was used as enzyme in following assay.
[4-^14 C]-testosterone (1.5 nmol), NADPH (75 nmol), the enzyme (1 mg protein) and test compound in a total volume of 0.5 ml of 40 mM sodium phosphate buffer [pH 6.5, containing 1 mM dithiothreitol] was incubated at 37° C. After 20 minutes the enzyme activity was stopped by the addition of 2 ml of ethyl acetate. The mixture was then centrifuged at 1,000 g, for 5 minutes. The ethyl acetate layer was transferred to another tube and evaporated to dryness. The steroids were taken up in 50 μl of ethyl acetate and separated by thin layer chromatography (TLC) on silica gel in a developing solvent (ethyl acetate: cyclohexane=1:1). The radioactivity of testosterone and dihydrotestosterone on the TLC plate was measured by a TLC scanner.

Take `CCCCCC(c1ccccc1)n1ccc2cc(/C(C)=C/C(=O)Nc3ccccc3OCCCC(=O)O)ccc21` (stereo not drawn) [Compound 43, 4-{2-[3-[1-(α-pentylbenzyl)indol-5-yl]isocrotonoylamino]phenoxy}butyric acid]: the “Acute toxicity (MLD), minimum lethal dose” value (from here on “Acute toxicity (MLD)”) in the data set on male dd mice is above 300 mg/kg. Besides, the “inhibition rate (%), 10^-7 M” value in the data set with steroid 5α-reductase is 74%.
For `CCCCC(c1ccccc1)n1ccc2cc(/C(C)=C/C(=O)Nc3ccccc3OCCCC(=O)O)ccc21` (stereo not drawn) [Compound 42, 4-{2-[3-[1-(α-butylbenzyl)indol-5-yl]isocrotonoylamino]phenoxy}butyric acid], in that order: above 300 mg/kg and 89%.
For `CCCCCn1ccc2cc(/C(C)=C/C(=O)Nc3ccccc3OCCCC(=O)O)ccc21` [Compound 6, 4-{2-[3-(1-pentylindol-5-yl)isocrotonoylamino]phenoxy}butyric acid], in the data set with male dd mice, the “Acute toxicity (MLD)” value was above 300 mg/kg. The “inhibition rate (%), 10^-7 M” value in the data set with steroid 5α-reductase turned out to be 81%.
In the same order, the values of “4-{2-[3-[1-(1-butylpentyl)indol-5-yl]isocrotonoyl amino]phenoxy}butyric acid [Compound 20]” are above 300 mg/kg and 79%.
For `CCCC(c1ccccc1)n1ccc2cc(/C(C)=C/C(=O)Nc3ccccc3OCCCC(=O)O)ccc21` (stereo not drawn) [Compound 41, 4-{2-[3-[1-(α-propylbenzyl)indol-5-yl]isocrotonoylamino]phenoxy}butyric acid], in that order: above 300 mg/kg and 90%.
For `C/C(=C\C(=O)Nc1ccccc1OCCCC(=O)O)c1ccc2c(ccn2C(c2ccccc2)c2ccc(C)cc2)c1` (stereo not drawn) [Compound 53], in that order: above 300 mg/kg and 84%.
Turning to `C/C(=C\C(=O)Nc1ccccc1OCCCC(=O)O)c1ccc2c(ccn2C(c2ccc(C)cc2)c2ccc(C)cc2)c1` [Compound 54, 4-{2-[3-[1-(4,4'-dimethylbenzhydryl)indol-5-yl]isocrotonoylamino]phenoxy}butyric acid], in the data set with male dd mice, the “Acute toxicity (MLD)” value was above 300 mg/kg. Further, in the data set on steroid 5α-reductase, the “inhibition rate (%), 10^-7 M” value is reported as 89%.
For `C/C(=C\C(=O)Nc1ccccc1OCCCC(=O)O)c1ccc2c(ccn2C(c2ccccc2)c2ccccc2C)c1` (stereo not drawn) [Compound 52], in that order: above 300 mg/kg and 90%.
Turning to `C/C(=C\C(=O)Nc1ccccc1OCCCC(=O)O)c1ccc2c(ccn2C2CCCc3ccccc32)c1` (stereo not drawn) [Compound 45, 4-{2-[3-[1-(1,2,3,4-tetrahydro-1-naphthyl)indol-5-yl]isocrtonoylamino]phenoxy}butyric acid], the “Acute toxicity (MLD)” value in the data set with male dd mice is recorded as above 300 mg/kg. Further, in the data set on steroid 5α-reductase, the “inhibition rate (%), 10^-7 M” value was 77%.
